Source: patent US20160220569A1, “CDK4/6 Inhibitor Dosage Formulations For The Protection Of Hematopoietic Stem And Progenitor Cells During Chemotherapy” (G1 Therapeutics, Inc., priority 2015, published 2016)
Like-named read-outs stand apart in the source and are kept apart here.

Experiment: 14-day oral gavage toxicokinetic study in rats
Assay type: in vivo
Settings: female, rat, plasma, po; for concentration at 1 h / concentration at 2 h / concentration at 4 h / concentration at 8 h / concentration at 12 h / concentration at 24 h / concentration at 0.5 h / concentration at […]: rats; for concentration at […]: Day 14, […]; for half-life: read-out: t½ (converted)
Experimental: Plasma was obtained from blood samples collected from rats in a composite sampling scheme, with 3 samples collected per sex, per dose, at each target collection time, as illustrated in Table 21 to Table 25. Samples were collected from the vehicle control group on Day 1 and Day 14 at 3 hour after administration. […] Blood samples were collected in tubes containing K3EDTA as an anticoagulant and placed on ice until processed to plasma via centrifugation. Samples were stored frozen at −80° C. until shipment to the bioanalytical laboratory for analysis.
The following parameters were determined:
Cmax: Maximum observed plasma concentration (ng/mL).
A value of 0 ng/mL was assigned to all values below the lower limit of quantitation (BLQ, <10.0 ng/mL).
AUC(0-inf): Area under the plasma concentration vs. time curve extrapolated from 0 to infinity (ng*h/mL), calculated as AUC(0-t)+AUC(t-inf) where AUC(t-inf) is calculated as last measurable concentration (CLast) divided by ke, where ke is the elimination rate constant determined by linear regression of the last three analytically measured points on the log plasma concentration vs. time curve. The selection criteria of the data points for inclusion in the calculation of ke required that at least three data points representing the terminal phase (after Tmax) were regressed and that R2≧0.850 when rounded.
CL: Clearance (L/h/kg), calculated as the dose divided by AUC(0-t).
Vd: Volume of distribution (L/kg), calculated as dose divided by the product of ke and AUC(0-inf).
Vdss: Steady state volume of distribution (L/kg), calculated as clearance […] mean residence time, where mean residence time is calculated as the area under the first moment curve divided by AUC(0-t).
t½: Elimination half-life (h), calculated as ln(2)/ke, where ke is the elimination rate constant determined by linear regression. Half-life was defined as not determined if regression criteria (specified in AUC(0-inf) above) were not met.
Cmax/Dose: Normalized Cmax, calculated as Cmax divided by total dose.
AUC/Dose: Normalized AUC, calculated as AUC(0-t) divided by total dose.
ii. Statistical Analysis Mean and standard deviation (SD) were calculated in Watson. Values of BLQ were assigned a value of 0 ng/mL for mean calculations. Concentration values and derived TK parameters were reported to three significant figures.

[1] = 2 mg/kg, oral 2 mg/kg, Study Day 1, Female
[2] = 2 mg/kg, oral 2 mg/kg, Study Day 14, Female
[3] = 5 mg/kg, oral 5 mg/kg, Study Day 1, Female
[4] = 5 mg/kg, oral 5 mg/kg, Study Day 14, Female

Q: Which concentration at 1 h (2 mg/kg, Mean Compound 1 Plasma Concentration, oral 2 mg/kg, Day 1, 1 h, Female) does the source give for `CN1CCN(c2ccc(Nc3ncc4cc5n(c4n3)C3(CCCCC3)CNC5=O)nc2)CC1` [Compound 1, 2′-((5-(4-methylpiperazin-1-yl)pyridin-2-yl)amino)-7′,8′-dihydro-6′H-spiro[cyclohexane-1,9′-pyrazino[1′,2′:1,5]pyrrolo[2,3-d]pyrimidin]-6′-one] here?
A: The concentration at 1 h was 91.4 ng/mL.

Q: And the concentration at 2 h (2 mg/kg, Mean Compound 1 Plasma Concentration, oral 2 mg/kg, Day 1, 2 h, Female)?
A: The concentration at 2 h was 196 ng/mL.

Q: And the concentration at 4 h (2 mg/kg, Mean Compound 1 Plasma Concentration, oral 2 mg/kg, Day 1, 4 h, Female)?
A: Its concentration at 4 h is 175 ng/mL.

Q: And the concentration at 8 h (2 mg/kg, Mean Compound 1 Plasma Concentration, oral 2 mg/kg, Day 1, 8 h, Female)?
A: Its concentration at 8 h is 96.7 ng/mL.

Q: And the concentration at 12 h (2 mg/kg, Mean Compound 1 Plasma Concentration, oral 2 mg/kg, Day 1, 12 h, Female)?
A: The concentration at 12 h was 82.2 ng/mL.

Q: What about the concentration at 24 h (2 mg/kg, Mean Compound 1 Plasma Concentration, oral 2 mg/kg, Day 1, 24 h, Female) of the same compound?
A: The concentration at 24 h was 13 ng/mL.

Q: What about the concentration at 0.5 h (2 mg/kg, Mean Compound 1 Plasma Concentration, oral 2 mg/kg, Day 14, 0.5 h, Female) of the same compound?
A: The concentration at 0.5 h was 150 ng/mL.

Q: And the concentration at 1 h (2 mg/kg, Mean Compound 1 Plasma Concentration, oral 2 mg/kg, Day 14, 1 h, Female)?
A: The concentration at 1 h was 111 ng/mL.

Q: And the concentration at 2 h (2 mg/kg, Mean Compound 1 Plasma Concentration, oral 2 mg/kg, Day 14, 2 h, Female)?
A: The concentration at 2 h was 212 ng/mL.

Q: And the concentration at 8 h (2 mg/kg, Mean Compound 1 Plasma Concentration, oral 2 mg/kg, Day 14, 8 h, Female)?
A: Its concentration at 8 h is 117 ng/mL.

Q: What about the concentration at 12 h (2 mg/kg, Mean Compound 1 Plasma Concentration, oral 2 mg/kg, Day 14, 12 h, Female) of the same compound?
A: The concentration at 12 h was 48.7 ng/mL.

Q: What about the concentration at 24 h (2 mg/kg, Mean Compound 1 Plasma Concentration, oral 2 mg/kg, Day 14, 24 h, Female) of the same compound?
A: Its concentration at 24 h is 10.8 ng/mL.

Q: What about the concentration at […] (2 mg/kg, Mean Compound 1 Plasma Concentration, oral 2 mg/kg, Female) of the same compound?
A: The concentration at […] was 10 ng/mL.

Q: What about the AUC(0-inf) [1] of the same compound?
A: Its AUC(0-inf) is 2160 ng·h/mL.

Q: And the AUC(0-t) [1]?
A: The AUC(0-t) was 2060 ng·h/mL.

Q: And the Cmax [1]?
A: The Cmax was 196 ng/mL.

Q: And the Tmax [1]?
A: The Tmax was 2 h.

Q: What about the half-life [1] of the same compound?
A: Its half-life is 5.25 h.

Q: And the AUC(0-inf) [2]?
A: The AUC(0-inf) was 1850 ng·h/mL.

Q: What about the AUC(0-t) [2] of the same compound?
A: The AUC(0-t) was 1770 ng·h/mL.

Q: And the Cmax [2]?
A: The Cmax was 212 ng/mL.

Q: And the Tmax [2]?
A: The Tmax was 2 h.

Q: And the half-life [2]?
A: Its half-life is 4.83 h.

Q: What about the concentration at 0.5 h (5 mg/kg, Individual Compound 1 Plasma Concentration, daily oral 5 mg/kg, Day 1, Female, 0.5 h) of the same compound?
A: The concentration at 0.5 h was 246 ng/mL.

Q: What about the concentration at 2 h (5 mg/kg, Individual Compound 1 Plasma Concentration, daily oral 5 mg/kg, Day 1, Female, 2 h) of the same compound?
A: Its concentration at 2 h is 533 ng/mL.

Q: What about the concentration at 8 h (5 mg/kg, Individual Compound 1 Plasma Concentration, daily oral 5 mg/kg, Day 1, Female, 8 h) of the same compound?
A: Its concentration at 8 h is 432 ng/mL.

Q: And the concentration at 24 h (5 mg/kg, Individual Compound 1 Plasma Concentration, daily oral 5 mg/kg, Day 1, Female, 24 h)?
A: Its concentration at 24 h is 23.2 ng/mL.

Q: And the concentration at 1 h (5 mg/kg, Individual Compound 1 Plasma Concentration, daily oral 5 mg/kg, Day 14, Female, 1 h)?
A: Its concentration at 1 h is 428 ng/mL.

Q: What about the concentration at 4 h (5 mg/kg, Individual Compound 1 Plasma Concentration, daily oral 5 mg/kg, Day 14, Female, 4 h) of the same compound?
A: The concentration at 4 h was 423 ng/mL.

Q: What about the concentration at 8 h (5 mg/kg, Individual Compound 1 Plasma Concentration, daily oral 5 mg/kg, Day 14, Female, 8 h) of the same compound?
A: Its concentration at 8 h is 234 ng/mL.

Q: And the concentration at 12 h (5 mg/kg, Individual Compound 1 Plasma Concentration, daily oral 5 mg/kg, Day 14, Female, 12 h)?
A: The concentration at 12 h was 112 ng/mL.

Q: What about the concentration at 24 h (5 mg/kg, Individual Compound 1 Plasma Concentration, daily oral 5 mg/kg, Day 14, Female, 24 h) of the same compound?
A: Its concentration at 24 h is 22.2 ng/mL.

Q: What about the concentration at 0.5 h (5 mg/kg, Mean Compound 1 Plasma Concentration, oral 5 mg/kg, Day 1, 0.5 h, Female) of the same compound?
A: The concentration at 0.5 h was 267 ng/mL.

Q: What about the concentration at 1 h (5 mg/kg, Mean Compound 1 Plasma Concentration, oral 5 mg/kg, Day 1, 1 h, Female) of the same compound?
A: The concentration at 1 h was 406 ng/mL.

Q: And the concentration at 2 h (5 mg/kg, Mean Compound 1 Plasma Concentration, oral 5 mg/kg, Day 1, 2 h, Female)?
A: The concentration at 2 h was 528 ng/mL.

Q: And the concentration at 4 h (5 mg/kg, Mean Compound 1 Plasma Concentration, oral 5 mg/kg, Day 1, 4 h, Female)?
A: The concentration at 4 h was 482 ng/mL.

Q: What about the concentration at 8 h (5 mg/kg, Mean Compound 1 Plasma Concentration, oral 5 mg/kg, Day 1, 8 h, Female) of the same compound?
A: Its concentration at 8 h is 360 ng/mL.

Q: What about the concentration at 12 h (5 mg/kg, Mean Compound 1 Plasma Concentration, oral 5 mg/kg, Day 1, 12 h, Female) of the same compound?
A: Its concentration at 12 h is 140 ng/mL.

Q: What about the concentration at 24 h (5 mg/kg, Mean Compound 1 Plasma Concentration, oral 5 mg/kg, Day 1, 24 h, Female) of the same compound?
A: Its concentration at 24 h is 18.6 ng/mL.

Q: What about the concentration at 0.5 h (5 mg/kg, Mean Compound 1 Plasma Concentration, oral 5 mg/kg, Day 14, 0.5 h, Female) of the same compound?
A: Its concentration at 0.5 h is 382 ng/mL.

Q: And the concentration at 1 h (5 mg/kg, Mean Compound 1 Plasma Concentration, oral 5 mg/kg, Day 14, 1 h, Female)?
A: Its concentration at 1 h is 519 ng/mL.

Q: What about the concentration at 2 h (5 mg/kg, Mean Compound 1 Plasma Concentration, oral 5 mg/kg, Day 14, 2 h, Female) of the same compound?
A: Its concentration at 2 h is 493 ng/mL.

Q: What about the concentration at 4 h (5 mg/kg, Mean Compound 1 Plasma Concentration, oral 5 mg/kg, Day 14, 4 h, Female) of the same compound?
A: The concentration at 4 h was 439 ng/mL.

Q: And the concentration at 8 h (5 mg/kg, Mean Compound 1 Plasma Concentration, oral 5 mg/kg, Day 14, 8 h, Female)?
A: Its concentration at 8 h is 255 ng/mL.

Q: And the concentration at 12 h (5 mg/kg, Mean Compound 1 Plasma Concentration, oral 5 mg/kg, Day 14, 12 h, Female)?
A: The concentration at 12 h was 105 ng/mL.

Q: What about the concentration at 24 h (5 mg/kg, Mean Compound 1 Plasma Concentration, oral 5 mg/kg, Day 14, 24 h, Female) of the same compound?
A: Its concentration at 24 h is 19.2 ng/mL.

Q: What about the concentration at […] (5 mg/kg, Mean Compound 1 Plasma Concentration, oral 5 mg/kg, Female) of the same compound?
A: The concentration at […] was 70.7 ng/mL.

Q: What about the AUC(0-inf) [3] of the same compound?
A: Its AUC(0-inf) is 5440 ng·h/mL.

Q: What about the AUC(0-t) [3] of the same compound?
A: The AUC(0-t) was 5340 ng·h/mL.

Q: And the Cmax [3]?
A: Its Cmax is 528 ng/mL.

Q: What about the Tmax [3] of the same compound?
A: Its Tmax is 2 h.

Q: What about the half-life [3] of the same compound?
A: Its half-life is 3.82 h.

Q: What about the AUC(0-inf) [4] of the same compound?
A: Its AUC(0-inf) is 4740 ng·h/mL.

Q: What about the AUC(0-t) [4] of the same compound?
A: Its AUC(0-t) is 4620 ng·h/mL.

Q: What about the Cmax [4] of the same compound?
A: Its Cmax is 519 ng/mL.
